Assay results: BindingDB's records for doi:10.1021/ml500507v (University of Cambridge, 2015)

Legend:
[1] = target: T1, 5-hydroxytryptamine receptor 2C (Homo sapiens, UniProt P28335); experiment: Agonist activity at human recombinant 5-HT2C receptor expressed in Swiss mouse 3T3 cell membranes after 30 to 40 mins by GTPgammaS recruitment assay
T1 sequence (P28335 whole entry): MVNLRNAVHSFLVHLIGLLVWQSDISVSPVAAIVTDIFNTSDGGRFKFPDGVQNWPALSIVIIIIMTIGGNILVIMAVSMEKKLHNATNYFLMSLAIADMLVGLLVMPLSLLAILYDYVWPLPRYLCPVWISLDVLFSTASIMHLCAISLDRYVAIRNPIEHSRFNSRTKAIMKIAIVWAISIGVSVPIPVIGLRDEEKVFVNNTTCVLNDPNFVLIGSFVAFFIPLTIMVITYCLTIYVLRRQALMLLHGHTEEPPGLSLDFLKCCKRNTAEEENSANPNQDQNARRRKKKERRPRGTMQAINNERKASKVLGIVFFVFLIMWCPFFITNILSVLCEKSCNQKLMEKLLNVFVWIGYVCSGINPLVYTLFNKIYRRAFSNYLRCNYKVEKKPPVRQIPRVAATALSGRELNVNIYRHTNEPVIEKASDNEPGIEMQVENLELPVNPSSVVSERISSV

[2] = target: T1, 5-hydroxytryptamine receptor 2C; experiment: Inhibition of Cy3B conjugated serotonin analogue binding to human recombinant 5-HT2C receptor expressed in Swiss mouse 3T3 cell membranes after 60 mins by fluorescence polarization assay

## c1ccc(CNc2nc(Cc3ccccc3)cc3c2CCNCC3)cc1
[1]
  EC50: 158 nM
[2]
  Ki: 22 nM

## c1ccc(Cc2cc3c(c(NCC4CC4)n2)CCNCC3)cc1
[2]
  Ki: 0.5 nM

## CC(C)CNc1nc(Cc2ccccc2)cc2c1CCNCC2
[1]
  EC50: 36 nM
[2]
  Ki: 12 nM

## CCNc1nc(Cc2ccccc2)cc2c1CCNCC2
[1]
  EC50: 11 nM
[2]
  Ki: 3 nM

## CNc1nc(Cc2ccccc2)cc2c1CCNCC2
[1]
  EC50: 9 nM
[2]
  Ki: 3 nM

## CCCNc1nc(Cc2ccccc2)cc2c1CCNCC2
[2]
  Ki: 4 nM

## CC(C)Nc1nc(Cc2ccccc2)cc2c1CCNCC2
[2]
  Ki: 13 nM

## CN(C)c1nc(Cc2ccccc2)cc2c1CCNCC2
[2]
  Ki: 12 nM

## c1ccc(Cc2cc3c(cn2)CCNCC3)cc1
[2]
  Ki: 35 nM
